Measurements from US20230346796A1 (priority 2010, published 2023).
Converted amounts (≈) assume the structure as drawn. “And” between values parts separate entries of the source, which are not always exact repeats. Identical values can stand only once. Like-named read-outs stand apart in the source and are kept apart here.

Legend:
[1] = tested on: procedural sedation; details: Phase III, cited from earlier work
[2] = tested on: patients undergoing a colonoscopy; details: for Success rate n/N (%): Phase IIb (Study CNS7056-004); for Time to Procedure Start, mean (SD): after initial dose; for Time to ready for discharge, Mean (SD): after last injection, first of three consecutive Aldrete scores of ≥ 9; for Time to ready for discharge, Mean (SD) / Time to fully alert, Mean (SD): ITT population; for Time to fully alert, Mean (SD): first of three consecutive MOAA/S scores of 5 after the last injection
[3] = tested on: procedural sedation; details: Phase II, cited from earlier work
[4] = tested on: healthy volunteers and patients undergoing a colonoscopy; assay: animal or person; assay type: in vivo, human; details: for EC50: Homo sapiens, read-out: EC50, theta (RSE%)
[5] = human, in vivo
[6] = Physiologically-based population pharmacokinetic analysis of CNS 7056 (Studies CNS 7056-001 and CNS 7056-002); details: for V3: arterial; for clearance: human, plasma, intravenous
[7] = human, in vivo; remark: listed apart in the source
[8] = highest dose regimen (8.0/3.0 mg)
[9] = lowest dose regimen (5.0/3.0 mg)
[10] = middle dose regimen (7.0/2.0 mg)
[11] = Run 142S, Lung/Central, 3 compartments
[12] = Run 144S, Lung/Liver, 4 compartments

Cc1ncc2n1-c1ccc(Cl)cc1C(c1ccccc1F)=NC2 [Midazolam, reference compound]
Success rate n/N (%) ([1]; 0.02 mg/kg): 36/52 (69.2%)
patients who did not respond to treatment and received Propofol as rescue medication ([2]; 2.5/1.0 mg): 25%
Success rate n/N (%) ([2]; 2.5/1.0 mg): 30/40 (75.0%)
Time to Procedure Start, mean (SD) ([2]; 2.5/1.0 mg): 4.80 (3.19) minutes
Time to ready for discharge, Mean (SD) ([2]; 2.5/1.0 mg): 17.1 (7.33) mins
Time to fully alert, Mean (SD) ([2]; 2.5/1.0 mg): 15.2 (7.43) mins
Success rate n/N (%) ([3]; 0.02 mg/kg): 21/26 (80.8%)

CC(C)c1cccc(C(C)C)c1OCOP(=O)(O)O [Fospropofol]
Success rate n/N (%) ([1]; 6.5 mg/kg (labelled dose)): 137/158 (86.7%)
Success rate n/N (%) ([3]; (labelled dose)): 18/26 (69.2%)

COC(=O)CC[C@@H]1N=C(c2ccccn2)c2cc(Br)ccc2-n2c(C)cnc21 [CNS 7056, 3-[(4S)-8-bromo-1-methyl-6-(2-pyridinyl)-4H-imidazo[1,2-a][1,4]benzodiazepin-4-yl] propionic methyl ester]
EC50 ([4]; 1 min): 0.332 µg/mL (≈ 0.756 µM)
EC50 ([4]; 2 min): 0.325 µg/mL (≈ 0.74 µM)
EC50 [4]: 0.369 µg/mL (≈ 0.84 µM)
EMAX ([4]; in vivo): 5.0
EMAX, fitted theta (RSE%) ([4]; in vivo): 4.88 (1.20) and 4.85 (0.87)
EMIN (first line so headed), eta IIV (RSE%) ([4]; in vivo): 29.73 (15.2) and 28.87 (11.7)
EMIN (second line so headed), eta IIV (RSE%) ([4]; in vivo): 94.18 (38.7)
Hill Coefficient (γ), theta (RSE%) ([4]; in vivo): 3.16 (8.82) and 4.64 (8.81) and 3.92 (6.76) and 3.9 (7.10) and 3.93 (6.81)
Hill Coefficient, eta IIV (RSE%) ([4]; in vivo): 54.72 (24.0) % and 57.77 (24.8) % and 50.35 (22.3) % and 51.71 (22.7) % and 48.59 (21.4) % and 59.37 (25.3) %
Hill coefficient ([4]; in vivo): 4.03 and 6.627
Hill coefficient, eta IIV (RSE%) ([4]; in vivo): 53.17 (23.0) and 69.49 (30.2)
Hill coefficient, theta (RSE%) ([4]; in vivo): 4.20 (7.47) and 4.62 (8.41)
IIV for all three pharmacodynamic parameters (EC50, ke0, Hill coefficient) ([4]; in vivo): approximately 40%
increase in EC50 caused by scoping-factor ([4]; in vivo): 10-12%
increase in EC50 during one- and two-minute spikes of increased MOAA/S score ([4]; in vivo): approximately 30%
ke0 ([4]; in vivo): 13.3 h⁻¹ and 12.17 h⁻¹
typical Hill coefficient ([4]; in vivo): 4.03
Body weight as predictor of systemic clearance [5]: not a statistically significant predictor
Success rate n/N (%) (ITT) ([2]; 7.0 mg initial / 2.0 mg top-ups (middle dose regimen), 40 patients): 38/40 (95.0%), p = 0.025
Success rate n/N (%) ([2]; 5.0/3.0 mg): 39/40 (97.5%)
Time to ready for discharge, Mean (SD) ([2]; 5.0/3.0 mg): 13.5 (4.83) mins
Time to fully alert, Mean (SD) ([2]; 5.0/3.0 mg): 13.3 (7.21) mins
Time to Procedure Start, mean (SD) ([2]; 5.0/3.0): 2.65 (1.42) minutes
Success rate n/N (%) ([2]; 7.0/2.0 mg): 38/40 (95.0%)
Time to Procedure Start, mean (SD) ([2]; 7.0/2.0 mg): 3.03 (2.17) minutes
Time to ready for discharge, Mean (SD) ([2]; 7.0/2.0 mg): 14.0 (6.28) mins
Time to fully alert, Mean (SD) ([2]; 7.0/2.0 mg): 11.3 (5.69) mins
Success rate n/N (%) ([2]; 8.0/3.0 mg): 37/40 (92.5%)
Time to Procedure Start, mean (SD) ([2]; 8.0/3.0 mg): 2.23 (1.44) minutes
Time to ready for discharge, Mean (SD) ([2]; 8.0/3.0 mg): 16.8 (7.54) mins
Time to fully alert, Mean (SD) ([2]; 8.0/3.0 mg): 13.6 (7.48) mins
recovery to fully alert [2, 8]: 13.6 min
time to discharge [2, 8]: 16.8 min
related AESIs (adverse events of special interest) ([2]; human, in vivo): 10
Success rate n/N (%) (ITT) ([2]; in vivo): 95%
patients requiring manual or mechanical ventilation ([2]; in vivo): no patient required manual or mechanical ventilation
time to fully alert compared to Midazolam ([2]; in vivo): shorter
recovery to fully alert [2, 9]: 13.3 min
time to discharge [2, 9]: 13.5 min
recovery to fully alert [2, 10]: 11.3 min
time to discharge [2, 10]: 14 min
Blood/Plasma Cardiac Flow, theta (RSE%) ([6]; Run 128S, Lung, 3 compartments): 173 (3.37) l/h
Central Volume, eta IIV (RSE%) ([6]; Run 128S, Lung, 3 compartments): 146.9 (52.9) %
Central Volume, theta (RSE%) ([6]; Run 128S, Lung, 3 compartments): 1.71 (15.2) I
Deep Volume(5), theta (RSE%) ([6]; Run 128S, Lung, 3 compartments): 23.4 (4.57) I
Deep Volume, eta IIV (RSE%) ([6]; Run 128S, Lung, 3 compartments): 22.55 (9.94) %
Inter-Tissue Clearance(4), theta (RSE%) ([6]; Run 128S, Lung, 3 compartments): 74.6 (3.29) I/h
Inter-Tissue Clearance(5), theta (RSE%) ([6]; Run 128S, Lung, 3 compartments): 25.7 (6.18) I/h
Peripheral Volume(4), theta (RSE%) ([6]; Run 128S, Lung, 3 compartments): 13.5 (9.18) I
Peripheral Volume, eta IIV (RSE%) ([6]; Run 128S, Lung, 3 compartments): 50.10 (18.0) %
Pulmonary Clearance, eta IIV (RSE%) ([6]; Run 128S, Lung, 3 compartments): 14.35 (6.07) %
Pulmonary Clearance, theta (RSE%) ([6]; Run 128S, Lung, 3 compartments): 49.1 (2.02) I/h
Blood/Plasma Cardiac Flow, theta (RSE%) ([6]; Run 135S, Lung, 4 compartments): 174 (3.59) l/h
Central Volume, eta IIV (RSE%) ([6]; Run 135S, Lung, 4 compartments): 190.2 (66.8) %
Central Volume, theta (RSE%) ([6]; Run 135S, Lung, 4 compartments): 1.24 (19.3) I
Deep Volume(5), theta (RSE%) ([6]; Run 135S, Lung, 4 compartments): 23.8 (4.78) I
Deep Volume, eta IIV (RSE%) ([6]; Run 135S, Lung, 4 compartments): 23.44 (10.3) %
Deeper Volume(6), theta (RSE%) ([6]; Run 135S, Lung, 4 compartments): 12 (20.4) I
Inter-Tissue Clearance(4), theta (RSE%) ([6]; Run 135S, Lung, 4 compartments): 68.5 (5.45) I/h
Inter-Tissue Clearance(5), theta (RSE%) ([6]; Run 135S, Lung, 4 compartments): 42 (5.57) I/h
Inter-Tissue Clearance(6), theta (RSE%) ([6]; Run 135S, Lung, 4 compartments): 3.12 (13.2) I/h
Peripheral Volume(4), theta (RSE%) ([6]; Run 135S, Lung, 4 compartments): 8.14 (12.8) I
Peripheral Volume, eta IIV (RSE%) ([6]; Run 135S, Lung, 4 compartments): 71.40 (25.4) %
Pulmonary Clearance, eta IIV (RSE%) ([6]; Run 135S, Lung, 4 compartments): 14.42 (6.13) %
Pulmonary Clearance, theta (RSE%) ([6]; Run 135S, Lung, 4 compartments): 48.7 (2.00) I/h
Blood/Plasma Cardiac Flow, theta (RSE%) [6, 11]: 177 (3.54) l/h
Central Volume, eta IIV (RSE%) [6, 11]: 143.6 (52.2) %
Central Volume, theta (RSE%) [6, 11]: 1.93 (15.8) I
Deep Volume(5), theta (RSE%) [6, 11]: 23.1 (4.58) I
Deep Volume, eta IIV (RSE%) [6, 11]: 22.59 (10.0) %
Extra-pulmonary Clearance, theta (RSE%) [6, 11]: 8.53 (52.4) I/h
Inter-Tissue Clearance(4), theta (RSE%) [6, 11]: 72.4 (3.61) I/h
Inter-Tissue Clearance(5), theta (RSE%) [6, 11]: 25.3 (6.16) I/h
Peripheral Volume(4), theta (RSE%) [6, 11]: 13.4 (9.32) I
Peripheral Volume, eta IIV (RSE%) [6, 11]: 50.48 (18.2) %
Pulmonary Clearance, eta IIV (RSE%) [6, 11]: 17.12 (8.97) %
Pulmonary Clearance, theta (RSE%) [6, 11]: 44.5 (6.11) I/h
Blood/Plasma Cardiac Flow, theta (RSE%) [6, 12]: 175 (2.68) l/h
Central Volume, eta IIV (RSE%) [6, 12]: 368.5 (105.) %
Central Volume, theta (RSE%) [6, 12]: 0.834 (15.8) I
Deep Volume(5), theta (RSE%) [6, 12]: 22.7 (5.28) I
Deep Volume, eta IIV (RSE%) [6, 12]: 24.10 (10.9) %
Deeper Volume(6), theta (RSE%) [6, 12]: 10.9 (16.7) I
Extra-pulmonary Clearance, theta (RSE%) [6, 12]: 6.15 (49.7) I/h
Inter-Tissue Clearance(4), theta (RSE%) [6, 12]: 46.2 (7.27) I/h
Inter-Tissue Clearance(5), theta (RSE%) [6, 12]: 40 (5.12) I/h
Inter-Tissue Clearance(6), theta (RSE%) [6, 12]: 3.07 (15.1) I/h
Peripheral Volume(4), theta (RSE%) [6, 12]: 6.47 (13.5) I
Peripheral Volume, eta IIV (RSE%) [6, 12]: 90.06 (30.2) %
Pulmonary Clearance, eta IIV (RSE%) [6, 12]: 16.22 (7.32) %
Pulmonary Clearance, theta (RSE%) [6, 12]: 45.0 (4.24) I/h
V3 ([6]; 0.65 x weight/70, Geom. Mean (Typical Value)): 0.717 I
V3 ([6]; 0.65 x weight/70, Subject 1210): 0.786 I
V3 ([6]; 0.65 × weight/70, Geom. Mean (Typical Value)): 0.717 L
V3 ([6]; 0.65 × weight/70, Subject 1210): 0.786 L
clearance ([6]; both, Clearance, Geom. Mean (Typical Value)): 819 mL/min
clearance ([6]; both, systemic clearance): ~1000 mL/min
clearance ([6]; Clearance, Subject 1210): 732 mL/min
contribution of the liver to clearance ([6]; modelling): ~10%
pulmonary extraction ratio, and first-pass metabolism ([6]; modelling): approximately 28%
V4 ([6]; peripheral, Subject 1210): 21.59 L
systemic exposure ([6]; typical single dose 7 mg): approximately 0.12 mcg.h/ml
V4 [7]: 21.59 I
